# Measurements reported in US20040038369A1, “Airway-specific trypsin-like enzymes and method of using the same” (priority 2000, published 2004).
# Legend:
# PAR-2 = biological target: T1, PAR-2 (Homo sapiens, UniProt P55085); experiment: Calcium influx in PAR-2-expressing insect cells; assay type: cell-based; details: AST 2 units/mL; trypsin, thrombin 0.1 to 10 units/mL; SFLLRNamide, SLIGRL 10 to 100 μM
# T1 construct: expressed in transfected cells; host or cells: Sf9 insect cells infected with recombinant baculovirus VL-PAR (pVL1393)
# T1 sequence (P55085 26-397): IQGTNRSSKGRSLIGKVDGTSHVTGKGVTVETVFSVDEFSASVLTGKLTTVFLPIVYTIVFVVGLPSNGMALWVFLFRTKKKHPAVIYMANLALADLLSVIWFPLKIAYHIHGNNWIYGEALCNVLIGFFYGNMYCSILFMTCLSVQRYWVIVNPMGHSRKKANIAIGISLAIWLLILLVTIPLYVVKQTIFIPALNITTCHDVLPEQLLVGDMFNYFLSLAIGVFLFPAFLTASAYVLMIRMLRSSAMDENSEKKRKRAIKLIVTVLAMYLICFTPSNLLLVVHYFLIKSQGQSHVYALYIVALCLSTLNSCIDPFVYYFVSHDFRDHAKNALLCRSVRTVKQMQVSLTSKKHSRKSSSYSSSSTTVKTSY
# Protocol: (§1) The above-obtained recombinant baculovirus VL-PAR for expressing the PAR was used to infect 1.0×10^7 Sf9 cells sowed on a 75 cm^2 flask at an MOI=2, and was then left and stationally cultured at 27° C. for 40 hours. After the culture, the infected cells were recovered and then subjected to a calcium influx experiment to-confirm the function of the PAR.
# (§2) The recovered infected cells (about 5×10^6 cells) were once washed with HEPES-Tyrode buffer solution-Ca^2+ (−) pH 7.4, and then suspended in 5 mL of HEPES-Tyrode buffer solution (containing Fura2-AM, 1 μg/mL) to load the Fura2-AM on the cells at 27° C. for 30 minutes. The suspension was centrifuged at 800 rpm at room temperature for 5 minutes to recover the cells. The cells were twice washed with HEPES-Tyrode buffer solution-Ca^2+ (−) pH 7.4 and then resuspended in 5 mL of HEPES-Tyrode buffer solution-Ca^2+ (−) pH 7.4. The cell suspension was mixed with 5 μL of 1M CaCl2 to give a final concentration of 1 mM CaCl2, and then incubated in a shaded state at room temperature for 5 minutes. The prepared Fura2-AM-loaded infected cells were dispensed into a 96 well plate in a volume of 100 μL/well, further subjected to the dispensation of HEPES-Tyrode buffer solution-C^2+ (+) pH 7.4 in a volume of 80 μL/well, and then assayed with a Fluorescence Drug Screening System (made by Hamamatsu Photonics Co.). Namely, [intensity of 500 nm fluorescent light due to 340 nm exciting light]/[intensity of 500 nm fluorescent light due to 380 nm exciting light] (reflecting the concentration of calcium in the cells) was assayed.
# NCI-H292 cells = experiment: AB-PAS staining of mucus glycoprotein in NCI-H292 cells; assay type: cell-based, human; details: FIG. 1 and 2
# Protocol: NCI-H292 cells (human pulmonary mucoepidermoid tumor cell strain, purchased from ATCC) were suspended in 10% FCS (Fetal Calf Serum)-containing RPMI-1640 (produced by Gibco Corp.), sowed on a Lab-Tek 8 well chamber slide (produced by Nunc Corp.) in a density of 6.0×10^4 cells/cm^2, cultured for 72 hours, subjected to the replacement of the culture solution by RPMI-1640 containing 0.1% of BSA, and further cultured for 24 hours.
# On the day of the treatment, the culture solution of each well was replaced by RPMI-1640 (containing 0.1% BSA) containing EGF (5 ng/mL, produced by Becton Dickinson Corp.), HB-EGF (5 ng/mL, produced by R & D Corp.), TGF-α (5 ng/mL, produced by Peprotech Corp.), or PBS to start the treatment. Then, the cells were incubated at 37° C. for 24 hours.
# After the prescribed 24 hours treatment, the culture supernatant was removed. The residue was once washed with PBS, mixed with 4% paraformaldehyde/PBS, and then allowed to stand at room temperature for one hour to immobilize the cells. The immobilized cells were twice washed with Milli Q water and then stained with AB-PAS. The staining was carried out according to a book (“All of new dyeing methods” p136-150 (Iyaku Shuppansha)). After staining, the cells were sequentially immersed in 70, 80, and 100% ethanol for five minutes, respectively, to remove water, sealed in an Aquatex (produced by Merck Corp.), and then subjected to the observation of the staining image with an optical microscope. From the results, it was clarified that all of HAST, TGF-α, EGF, and HB-EGF promoted the production of the mucus glycoprotein.
# NCI-H292 cells (purchased from ATCC) were suspended in 10% FCS-containing RPMI-1640 (produced by Gibco Corp.), sowed on a Lab-Tek 8 well chamber slide (produced by Nunc Corp.) in a density of 6.0×10^4 cells/cm^2, cultured for 72 hours, subjected to the replacement of the culture solution by RPMI-1640 containing 0.1% of BSA, and further cultured for 24 hours. […]
# [1] = system: EGF on surface of H292 cell membrane; experiment: Surface antigen analysis (FACS) of EGF on NCI-H292 cell membrane; assay type: cell-based, human; details: HAST 300 mU/mL + inhibitor (leupeptin 10 μM, BB1101 5 μM); PBS 10.79, HAST alone 8.33
# Protocol: (§3) NCI-H292 cells (purchased from ATCC) were cultured on a 10 cm dish in 10% FCS-containing RPMI-1640 until to reach a confluent state, subjected to the replacement of the culture medium by RPMI-1640 containing 0.1% of BSA, and further cultured for 24 hours. The cultured cells were washed with PBS, treated and floated in PBS containing 5 mM of EDTA at 37° C. for five minutes, and then suspended in 0.1%BSA-containing RPMI-1640 in a density of 1.0×10^7 cells/mL.
# (§4) The above-described cell suspension and 0.1% BSA-containing RPMI-1640 containing HAST in a double concentration (600 mU/mL) were mixed with each other in equivalent amounts, respectively, and reacted with each other at 37° C. for 30 minutes (final cell concentration: 5.0×10^6 cells/mL, final HAST concentration: 300 mU/mL). The reaction solution was mixed with ice-cooled 1% FCS-containing PBS in a volume of 5 times that of the reaction solution to stop the reaction, and the treated solution was then supplied for a surface antigen analysis.
# (§5) The cells subjected to the prescribed treatments were suspended in 1% FCS-containing PBS in a density of 1.0×10^7 cells/mL. 100 μL of the prepared cell suspension was mixed with a primary antigen (EGF back ground dyeing: 1 μg of normal mouse IgG1 (produced by R & D Corp.), EGF dyeing: 1 μg of an anti-EGF mouse monoclonal antibody (produced by R & D Corp.), HB-EGF back ground dyeing: free from the primary antigen, HB-EGF dyeing: 2 μg of an anti-HB-EGF goat polyclonal antibody (produced by R & D Corp.)) and reacted on ice for 30 minutes. The reaction product was once washed with 5 mL of 1% FCS-containing PBS, mixed with 2 μg of a secondary antigen (EGF back ground dyeing and EGF dyeing: FITC conjugated F(ab′)2 fragment to mouse IgG (produced by Dako Corp.), HB-EGF back ground dyeing and HB-EGF dyeing: Swine Anti-Goat Ig's Fluorescein Conjugate (produced by KPL Corp.)), and then reacted on ice for 30 minutes. The reaction solution was once washed with 5 mL of 1% FCS-containing PBS, and then mixed with Cell Fix (produced by Becton Dickinson Corp.) to immobilize the cells. The expression of the surface antigen was assayed with FACS Calibur (produced by Becton Dickinson Corp.) and analyzed with Cell Quest (produced by Becton Dickinson Corp.). Average fluorescence intensities were shown in the next table as the indicators of expression intensities.
# (§6) HAST (600 mU/mL) was reacted with leupeptin (10 μM) or BB1101 (5 μM) in 0.1% BSA-containing RPMI-1640 on ice for 30 minutes, and the reaction solution was mixed with the equivalent amount of a cell suspension preliminarily treated with leupeptin (10 μM) or BB1101 (5 μM) at 37° C. for 30 minutes, and further treated at 37° C. for 30 minutes (final HAST concentration: 300 mU/mL, final leupeptin concentration: 10 μM, final BB1101 concentration: 5 μM, final cell concentration: 5.0×10^6 cells/mL). The reaction solution was mixed with ice-cooled 1% FCS-containing PBS in an amount of five times that of the reaction solution to stop the reaction, and then supplied for the surface antigen analysis.
# (§7) The cells subjected to the prescribed treatments were suspended in 1% FCS-containing PBS in a density of 1.0×10^7 cells/mL. […]
# [2] = system: HB-EGF on surface of H292 cell membrane; experiment: Surface antigen analysis (FACS) of HB-EGF on NCI-H292 cell membrane; assay type: cell-based, human; details: HAST 300 mU/mL + inhibitor (leupeptin 10 μM, BB1101 5 μM); PBS 8.61, HAST alone 6.26
# Protocol: as §3, §4, §5, §6, §7
# PAR-1 = biological target: T2, PAR-1 (Homo sapiens, UniProt P25116); experiment: Calcium influx in PAR-1-expressing insect cells; assay type: cell-based; details: AST 2 units/mL; trypsin, thrombin 0.1 to 10 units/mL; SFLLRNamide 10 to 100 μM
# T2 construct: expressed in transfected cells; host or cells: Sf9 insect cells infected with recombinant baculovirus VL-PAR (pVL1393)
# T2 sequence (P25116 22-425): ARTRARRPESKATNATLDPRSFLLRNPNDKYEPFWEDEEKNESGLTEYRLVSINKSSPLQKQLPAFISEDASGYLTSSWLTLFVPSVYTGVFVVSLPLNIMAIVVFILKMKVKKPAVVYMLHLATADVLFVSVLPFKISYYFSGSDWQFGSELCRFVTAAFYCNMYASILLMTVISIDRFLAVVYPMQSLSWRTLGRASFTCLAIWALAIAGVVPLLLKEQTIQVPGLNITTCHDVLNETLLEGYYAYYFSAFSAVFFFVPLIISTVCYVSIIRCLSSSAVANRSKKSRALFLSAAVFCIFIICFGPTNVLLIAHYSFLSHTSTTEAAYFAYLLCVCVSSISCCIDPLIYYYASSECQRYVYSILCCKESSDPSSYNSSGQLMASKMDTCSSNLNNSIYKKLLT
# PAR-4 = biological target: T3, PAR-4 (Homo sapiens, UniProt Q96RI0); experiment: Calcium influx in PAR-4-expressing insect cells; assay type: cell-based; details: AST 2 units/ml; trypsin, thrombin 0.1 to 10 units/mL
# T3 construct: expressed in transfected cells; host or cells: Sf9 insect cells infected with recombinant baculovirus VL-PAR (pVL1393)
# T3 sequence (Q96RI0 18-385): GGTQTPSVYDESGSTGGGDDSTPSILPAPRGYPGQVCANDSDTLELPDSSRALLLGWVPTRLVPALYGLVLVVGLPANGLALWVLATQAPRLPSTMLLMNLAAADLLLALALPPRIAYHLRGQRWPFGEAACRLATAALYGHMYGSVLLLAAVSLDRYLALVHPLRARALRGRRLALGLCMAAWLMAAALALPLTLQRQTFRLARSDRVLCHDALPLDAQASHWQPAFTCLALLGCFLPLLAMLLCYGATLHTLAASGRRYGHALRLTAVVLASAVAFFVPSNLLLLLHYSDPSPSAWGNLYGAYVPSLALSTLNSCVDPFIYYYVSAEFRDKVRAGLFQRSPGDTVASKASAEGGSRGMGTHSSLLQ
# Protocol: as §1
# as §2, with “Namely, [intensity of 500 nm fluorescent light due to 340 nm exciting light]/[intensity of 500 nm fluorescent light due to 380 nm exciting light] (reflecting the concentration of calcium in the cells) was assayed.” left out
Compound,Ca2+ influx (PAR-2),production of the mucus glycoprotein (NCI-H292 cells),EGF expression intensity on the surfaces of the cell membranes (average fluorescence intensity) [1],HB-EGF expression intensity on the surfaces of the cell membranes (average fluorescence intensity) [2],also measured
SLIGRL [agonist peptide for PAR-2],observed,–,–,–,–
"HB-EGF: Heparin-binding EGF-like Growth Factor, EGFR ligand, produced by R & D Corp. [reference compound]",–,promoted,–,–,–
"C=CC[C@H](C(=O)NO)[C@@H](CC(C)C)C(=O)N[C@@H](Cc1ccccc1)C(=O)NC [BB01, reference compound]",–,–,7.49,6.65,–
thrombin [reference compound],observed,–,–,–,Ca2+ influx (PAR-1): observed; Ca2+ influx (PAR-4): observed
"TGF-α: Transforming Growth Factor-α, EGFR ligand, produced by Peprotech Corp. [reference compound]",–,promoted,–,–,–
"CC(=O)N[C@@H](CC(C)C)C(=O)N[C@@H](CC(C)C)C(=O)N[C@H](C=O)CCCNC(=N)N [leupeptin, reference compound]",–,–,10.18,7.3,–
